# Source: the supplement of paper PMC10307832
# What was measured:
# Assay in all cases: relative viability (nuclei count vs DMSO), 5 days (fraction); higher = more cells survive
# IA-LM = tested on: IA-LM
# Summary of the method: (§1)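 Five library-drug doses in √10 steps were combined with a fixed anchor-drug dose, or a single drug was given alone, by pin tool to lung cancer cell lines in 1536-well plates the day after seeding. Nuclei were stained and counted after 5 days. Relative viability is the nuclei count in treated wells over that in vehicle wells, taken as the median of duplicate plates.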
# EBC-1 = tested on: EBC-1
# Summary of the method: as §1
# NCI-H1651 = tested on: NCI-H1651
# Summary of the method: as §1
# RERF-LC-KJ = tested on: RERF-LC-KJ
# Summary of the method: as §1
# NCI-H1703 = tested on: NCI-H1703
# Summary of the method: as §1
# PC-3 [JPC-3] = tested on: PC-3 [JPC-3]
# Summary of the method: as §1
# NCI-H1299 = tested on: NCI-H1299
# Summary of the method: as §1
# NCI-H838 = tested on: NCI-H838
# Summary of the method: as §1
# NCI-H650 = tested on: NCI-H650
# Summary of the method: as §1
# A549 = tested on: A549
# Summary of the method: as §1
# NCI-H1944 = tested on: NCI-H1944
# Summary of the method: as §1
# Calu-6 = tested on: Calu-6
# Summary of the method: as §1
# NCI-H520 = tested on: NCI-H520
# Summary of the method: as §1
# NCI-H1648 = tested on: NCI-H1648
# Summary of the method: as §1
structure (smiles),measurement,setting,value
CC(=O)O[C@@]12CO[C@@H]1C[C@H](O)[C@@]1(C)C(=O)[C@H](O)C3=C(C)[C@@H](OC(=O)[C@H](O)[C@@H](NC(=O)OC(C)(C)C)c4ccccc4)C[C@@](O)([C@@H](OC(=O)c4ccccc4)[C@H]21)C3(C)C [Docetaxel] + O=C(c1cc(Cc2n[nH]c(=O)c3ccccc23)ccc1F)N1CCN(C(=O)C2CC2)CC1 [Olaparib] (partner 8 µM),relative viability,IA-LM; first compound 0.0002 µM,0.687
same,relative viability,IA-LM; first compound 0.000632 µM,0.326
same,relative viability,IA-LM; first compound 0.002 µM,0.153
same,relative viability,IA-LM; first compound 0.006325 µM,0.0861
same,relative viability,IA-LM; first compound 0.02 µM,0.074
same,relative viability,EBC-1; first compound 0.0002 µM,0.579
same,relative viability,EBC-1; first compound 0.000632 µM,0.358
same,relative viability,EBC-1; first compound 0.002 µM,0.213
same,relative viability,EBC-1; first compound 0.006325 µM,0.217
same,relative viability,EBC-1; first compound 0.02 µM,0.162
same,relative viability,NCI-H1651; first compound 0.0002 µM,0.188
same,relative viability,NCI-H1651; first compound 0.000632 µM,0.206
same,relative viability,NCI-H1651; first compound 0.002 µM,0.177
same,relative viability,NCI-H1651; first compound 0.006325 µM,0.137
same,relative viability,RERF-LC-KJ; first compound 0.0002 µM,0.793
same,relative viability,RERF-LC-KJ; first compound 0.000632 µM,0.608
same,relative viability,RERF-LC-KJ; first compound 0.002 µM,0.281
same,relative viability,RERF-LC-KJ; first compound 0.02 µM,0.172
same,relative viability,NCI-H1703; first compound 0.0002 µM,0.372
same,relative viability,NCI-H1703; first compound 0.000632 µM,0.538
same,relative viability,NCI-H1703; first compound 0.002 µM,0.204
same,relative viability,NCI-H1703; first compound 0.006325 µM,0.174
same,relative viability,NCI-H1703; first compound 0.02 µM,0.0787
same,relative viability,PC-3 [JPC-3]; first compound 0.0002 µM,1.13
same,relative viability,PC-3 [JPC-3]; first compound 0.000632 µM,1.03
same,relative viability,PC-3 [JPC-3]; first compound 0.002 µM,0.585
same,relative viability,PC-3 [JPC-3]; first compound 0.006325 µM,0.388
same,relative viability,PC-3 [JPC-3]; first compound 0.02 µM,0.234
same,relative viability,NCI-H1299; first compound 0.0002 µM,0.95
same,relative viability,NCI-H1299; first compound 0.000632 µM,0.9
same,relative viability,NCI-H1299; first compound 0.002 µM,0.628
same,relative viability,NCI-H1299; first compound 0.006325 µM,0.351
same,relative viability,NCI-H1299; first compound 0.02 µM,0.241
same,relative viability,NCI-H838; first compound 0.0002 µM,0.716
same,relative viability,NCI-H838; first compound 0.000632 µM,0.368
same,relative viability,NCI-H838; first compound 0.002 µM,0.268
same,relative viability,NCI-H838; first compound 0.006325 µM,0.137
same,relative viability,NCI-H838; first compound 0.02 µM,0.106
same,relative viability,NCI-H650; first compound 0.0002 µM,0.361
same,relative viability,NCI-H650; first compound 0.000632 µM,0.292
same,relative viability,NCI-H650; first compound 0.002 µM,0.192
same,relative viability,NCI-H650; first compound 0.006325 µM,0.189
same,relative viability,NCI-H650; first compound 0.02 µM,0.148
same,relative viability,A549; first compound 0.0002 µM,0.341
same,relative viability,A549; first compound 0.000632 µM,0.0796
same,relative viability,A549; first compound 0.002 µM,0.0511
same,relative viability,A549; first compound 0.006325 µM,0.0681
same,relative viability,A549; first compound 0.02 µM,0.0279
same,relative viability,NCI-H1944; first compound 0.0002 µM,0.439
same,relative viability,NCI-H1944; first compound 0.000632 µM,0.396
same,relative viability,NCI-H1944; first compound 0.002 µM,0.339
same,relative viability,NCI-H1944; first compound 0.006325 µM,0.238
same,relative viability,NCI-H1944; first compound 0.02 µM,0.118
same,relative viability,Calu-6; first compound 0.0002 µM,0.604
same,relative viability,Calu-6; first compound 0.000632 µM,0.454
same,relative viability,Calu-6; first compound 0.002 µM,0.243
same,relative viability,Calu-6; first compound 0.006325 µM,0.128
same,relative viability,Calu-6; first compound 0.02 µM,0.0895
same,relative viability,NCI-H520; first compound 0.0002 µM,0.31
same,relative viability,NCI-H520; first compound 0.000632 µM,0.286
same,relative viability,NCI-H520; first compound 0.002 µM,0.22
same,relative viability,NCI-H520; first compound 0.006325 µM,0.165
same,relative viability,NCI-H520; first compound 0.02 µM,0.132
same,relative viability,NCI-H1648; first compound 0.0002 µM,0.773
same,relative viability,NCI-H1648; first compound 0.000632 µM,0.563
same,relative viability,NCI-H1648; first compound 0.002 µM,0.338
same,relative viability,NCI-H1648; first compound 0.006325 µM,0.279
same,relative viability,NCI-H1648; first compound 0.02 µM,0.21
Cc1sc2c(c1C)C(c1ccc(Cl)cc1)=N[C@@H](CC(=O)OC(C)(C)C)c1nnc(C)n1-2 [JQ1] + NC(=O)Nc1cc(-c2cccc(F)c2)sc1C(=O)N[C@H]1CCCNC1 [AZD7762] (partner 0.2 µM),relative viability,NCI-H1651; first compound 0.04 µM,0.538
same,relative viability,NCI-H1651; first compound 0.1265 µM,0.45
same,relative viability,NCI-H1651; first compound 0.4 µM,0.427
same,relative viability,NCI-H1651; first compound 1.265 µM,0.421
same,relative viability,NCI-H1651; first compound 4 µM,0.419
same,relative viability,RERF-LC-KJ; first compound 0.04 µM,1.02
same,relative viability,RERF-LC-KJ; first compound 0.1265 µM,0.803
same,relative viability,RERF-LC-KJ; first compound 0.4 µM,0.976
same,relative viability,RERF-LC-KJ; first compound 1.265 µM,0.816
same,relative viability,RERF-LC-KJ; first compound 4 µM,0.358
same,relative viability,NCI-H1703; first compound 0.04 µM,0.111
same,relative viability,NCI-H1703; first compound 0.1265 µM,0.13
same,relative viability,NCI-H1703; first compound 0.4 µM,0.155
same,relative viability,NCI-H1703; first compound 1.265 µM,0.108
same,relative viability,NCI-H1703; first compound 4 µM,0.118
same,relative viability,PC-3 [JPC-3]; first compound 0.04 µM,0.709
same,relative viability,PC-3 [JPC-3]; first compound 0.1265 µM,0.849
same,relative viability,PC-3 [JPC-3]; first compound 0.4 µM,0.497
same,relative viability,PC-3 [JPC-3]; first compound 1.265 µM,0.527
same,relative viability,PC-3 [JPC-3]; first compound 4 µM,0.438
same,relative viability,NCI-H838; first compound 0.04 µM,0.907
same,relative viability,NCI-H838; first compound 0.1265 µM,0.782
same,relative viability,NCI-H838; first compound 0.4 µM,0.817
same,relative viability,NCI-H838; first compound 1.265 µM,0.805
same,relative viability,NCI-H838; first compound 4 µM,0.628
same,relative viability,NCI-H650; first compound 0.04 µM,0.935
same,relative viability,NCI-H650; first compound 0.1265 µM,0.591
same,relative viability,NCI-H650; first compound 0.4 µM,1
same,relative viability,NCI-H650; first compound 1.265 µM,0.565
same,relative viability,NCI-H650; first compound 4 µM,0.302
same,relative viability,NCI-H1944; first compound 0.04 µM,0.533
same,relative viability,NCI-H1944; first compound 0.1265 µM,0.412
same,relative viability,NCI-H1944; first compound 0.4 µM,0.434
same,relative viability,NCI-H1944; first compound 1.265 µM,0.365
same,relative viability,NCI-H1944; first compound 4 µM,0.313
same,relative viability,NCI-H1648; first compound 0.04 µM,0.862
same,relative viability,NCI-H1648; first compound 0.1265 µM,0.906
same,relative viability,NCI-H1648; first compound 0.4 µM,0.579
same,relative viability,NCI-H1648; first compound 1.265 µM,0.376
same,relative viability,NCI-H1648; first compound 4 µM,0.388
